# In article PMC12714728, “VHH antibody loop guides design of a synthetic macrocyclic peptide that potently blocks influenza virus membrane fusion” (npj Viruses, 2025):
# Non-standard residues stand in square brackets, D forms with d. Residues, ends and D or L forms follow the SMILES beside them. ξ: configuration not given here. ξhhPhe = NC(CCCc1ccccc1)C(=O)O; dAbu = CC[C@@H](N)C(=O)O
# Assays:
# [1] = In vitro cell permeability assay; conditions: pig; for efflux ratio at 120 min, 30 nM / Papp B→A at 120 min, 30 nM: LLC-Parent; for Papp B→A at 120 min, 30 nM: basolateral to apical
# P-gp (MDR1) = assay: In vitro cell permeability / P-gp substrate assay; conditions: pig; for Papp A→B at 120 min, 30 nM: LLC-MDR1, apical to basolateral; for Papp B→A at 120 min, 30 nM: LLC-MDR1, basolateral to apical
# [2] = test system: H1/NCa HA (A/New Caledonia/20/1999 (H1N1)); assay type: binding, influenza A virus
# [3] = test system: H1N1 A/Brisbane/59/2007 (H1/Bri) HA; assay type: biochemical, influenza A virus; conditions: pH 5.25
# [4] = test system: H5/Viet HA (A/Vietnam/1203/2004 (H5N1)); assay type: binding, influenza A virus
# [5] = test system: H1/Cal HA (A/California/07/2009 (H1N1)); assay type: binding, influenza A virus
# [6] = test system: group 1 H1/Cal, H1/NCa, and H5/Viet HAs; assay type: binding, influenza A virus
# [7] = test system: H5/Viet virus (A/Vietnam/1203/2004 (H5N1))
# [8] = LLC-PK1, pH 7.4, Papp BA, no inhibitor
# [9] = LLC-PK1, pH 7.4, with elacridar (GF120918) 5 µM, Papp BA, + 5 µM GF120918
Compound,IC50 [2],IC50 [3],IC50 [4],IC50 [5],also measured
"C[C@H]1O[C@@H](O[C@H]2[C@@H](O)C[C@H](O[C@H]3[C@@H](O)C[C@H](O[C@H]4CC[C@@]5(C)[C@H](CC[C@@H]6[C@@H]5C[C@@H](O)[C@]5(C)[C@@H](C7=CC(=O)OC7)CC[C@]65O)C4)O[C@@H]3C)O[C@@H]2C)C[C@H](O)[C@@H]1O [3H-Digoxin, Digoxin, reference compound]",–,–,–,–,"Papp A→B at 120 min, 30 nM ([1]; LLC-PK1, pH 7.4): 2.45 ± 0.1 ×10⁻⁶ cm/s; efflux ratio at 120 min, 30 nM ([1]; LLC-PK1, pH 7.4, Efflux ratio BA/AB, no inhibitor): 0.94; Papp B→A at 120 min, 30 nM [1, 8]: 2.31 ± 0.15 ×10⁻⁶ cm/s; efflux ratio at 120 min, 30 nM ([1]; LLC-PK1, pH 7.4, with elacridar (GF120918) 5 µM, Efflux ratio BA/AB, + 5 µM GF120918): 0.9; Papp B→A at 120 min, 30 nM [1, 9]: 2.37 ± 0.08 ×10⁻⁶ cm/s; efflux ratio at 120 min, 30 nM (P-gp (MDR1); LLC-PK1, pH 7.4, Efflux ratio BA/AB, LLC-MDR1, no inhibitor): 22.6; Papp A→B at 120 min, 30 nM (P-gp (MDR1); LLC-PK1, pH 7.4, Papp AB, no inhibitor): 0.45 ± 0.08 ×10⁻⁶ cm/s; Papp B→A at 120 min, 30 nM (P-gp (MDR1); [8]): 10.3 ± 0.2 ×10⁻⁶ cm/s; efflux ratio at 120 min, 30 nM (P-gp (MDR1); LLC-PK1, pH 7.4, with elacridar (GF120918) 5 µM, Efflux ratio BA/AB, LLC-MDR1, + 5 µM GF120918): 0.91; Papp A→B at 120 min, 30 nM (P-gp (MDR1); LLC-PK1, pH 7.4, with elacridar (GF120918) 5 µM, Papp AB, + 5 µM GF120918): 2.98 ± 0.15 ×10⁻⁶ cm/s; Papp B→A at 120 min, 30 nM (P-gp (MDR1); [9]): 2.72 ± 0.05 ×10⁻⁶ cm/s"
CSCC[C@@H]1NC(=O)CNC(=O)CNC(=O)[C@H](C)NC(=O)[C@H](C(C)C)NC(=O)CNC(=O)[C@H](CC(C)C)NC(=O)[C@@H]2CCCN2C(=O)[C@H](CC(=O)O)NC(=O)[C@H](CCC(=O)O)NC(=O)[C@H](Cc2ccc(O)cc2)NC(=O)[C@H](CC(C)C)NC(=O)[C@H](CO)NC(=O)[C@@H]2CCCN2C(=O)[C@H]2CCCN2C(=O)[C@H](C(C)C)NC(=O)CNC1=O [CP2],12.7 ± 1.64 µM,21.9 ± 3.24 µM,55.1 µM,5.13 µM,–
CSCC[C@@H]1NC(=O)CNC(=O)CNC(=O)[C@H](C)NC(=O)[C@H](C(C)C)NC(=O)CNC(=O)[C@H](CC(C)C)NC(=O)[C@@H]2CCCN2C(=O)[C@H](CC(=O)O)NC(=O)[C@H](CCC(=O)O)NC(=O)[C@H](Cc2ccc(O)cc2)NC(=O)[C@H](CC(C)C)NC(=O)[C@H]2CCCN2C(=O)[C@@H]2CCCN2C(=O)CNC1=O [CP3],2.01 ± 0.54 µM,2.78 ± 0.26 µM,27.1 ± 2.79 µM,1.71 ± 0.19 µM,–
CSCC[C@@H]1NC(=O)CNC(=O)CNC(=O)[C@H](C)NC(=O)[C@H](C(C)C)NC(=O)CNC(=O)[C@H](CC(C)C)NC(=O)[C@@H]2CCCN2C(=O)[C@H](CC(=O)O)NC(=O)[C@H](CCC(=O)O)NC(=O)[C@H](Cc2ccc(O)cc2)NC(=O)[C@H](CC(C)C)NC(=O)[C@H](CO)NC(=O)[C@H](C(C)C)NC(=O)[C@H]2CCCN2C(=O)CNC(=O)[C@H](Cc2ccc(O)cc2)NC(=O)[C@H](C(C)C)NC(=O)CNC1=O [CP4],0.075 ± 0.01 µM,0.39 ± 0.04 µM,0.76 ± 0.086 µM,0.1 µM,half-life / residence time t1/2 (range over HAs) [6]: 2 to 16 s; koff (range over HAs) [6]: 0.04–0.32; Neutralization activity against H5N1 virus (in words) [7]: complete abolishment of neutralization activity
CSCC[C@@H]1NC(=O)CNC(=O)CNC(=O)[C@H](C)NC(=O)[C@H](C(C)C)NC(=O)CNC(=O)[C@H](CC(C)C)NC(=O)[C@@H]2CCCN2C(=O)[C@H](CC(=O)O)NC(=O)[C@H](CCC(=O)O)NC(=O)[C@H](Cc2ccc(O)cc2)NC(=O)[C@H](CC(C)C)NC(=O)[C@H](CO)NC(=O)CNC(=O)[C@H]2CCCN2C(=O)[C@H](C(C)C)NC(=O)CNC1=O [CP5],–,17 ± 4.58 µM,–,4.63 µM,–
CSCC[C@@H]1NC(=O)CNC(=O)CNC(=O)[C@H](C)NC(=O)[C@H](C(C)C)NC(=O)CNC(=O)[C@H](CC(C)C)NC(=O)[C@@H]2CCCN2C(=O)[C@H](CC(=O)O)NC(=O)[C@H](CCC(=O)O)NC(=O)[C@H](Cc2ccc(O)cc2)NC(=O)[C@H](CC(C)C)NC(=O)[C@H]2CCCN2C(=O)CNC(=O)CNC1=O [CP6],1.47 ± 0.32 µM,2.74 ± 0.9 µM,13.5 ± 2.17 µM,1.09 ± 0.2 µM,–
CC[C@H]1NC(=O)[C@H](C(C)C)NC(=O)CNC(=O)C(CCCc2ccccc2)NC(=O)[C@@H]2CCCN2C(=O)[C@H](CC(=O)O)NC(=O)[C@H](CCC(=O)O)NC(=O)[C@H](Cc2ccc(O)cc2)NC(=O)[C@H](CC(C)C)NC(=O)[C@H]2CCCN2C(=O)CNC(=O)CNC(=O)[C@H](CCSC)NC(=O)CNC(=O)CNC1=O (stereo partly drawn) [CP7] (cyclo([dP]LYEDP[ξhhPhe]GV[dAbu]GGMGG)),0.22 ± 0.01 µM,3.54 ± 0.31 µM,14.8 ± 0.57 µM,0.36 ± 0.01 µM,–
